Results from patent publication US20260216328A1, “DISRUPTABLE LINKER COMPOSITIONS, SWITCHABLE BISPECIFIC T CELL NANOENGAGER (SWITCH-BITE) COMPOSITIONS COMPRISING THE SAME, AND METHODS OF USE THEREOF” (The Trustees of the University of Pennsylvania, priority 2023, published 2026).

Assays:
E0771-HER2 tumour [1] = test: E0771-HER2 tumour model with HER2 expression in the liver (on-target, off-tumour toxicity)
Procedure: FIG. 26A: mouse model with expression of human HER2 antigen in the liver was constructed using a piggyback transposon system delivered via lipid nanoparticles (LNPs) encapsulating two plasmids, pCMV-hyPBase and pPB7 TBG.human HER2.P2A.IRFP720, at day −30. At day 0, 10^6 E0771-HER2 tumour cells were injected s.c. into the right flank at day 0. […] FIGS. 26B-26D: mouse tumour growth curves, measurements of mouse body weight, and survival curves, respectively. n=8 mice. P value in FIG. 26D was determined using Log-rank (Mantel-Cox) test. […] FIGS. 26E-26K: measurements of markers for inflammation and toxicity including AST, ALT, TNF-α, IFN-γ, and IL-2 levels in mouse blood at different time points. n=3 mice. […] H&E staining was conducted to detect liver damage in different groups. Scale bar: […]. […] Blue: DAPI: Red, CD3^+ T cells. […] (n=5).
T cell infiltration in the liver was measured using flow (FIG. 27A). FIG. 27B: liver T cells in different treatment groups at day 13. […] P values were indicated in FIGS. 27B-27C, analyzed by two-tailed unpaired Student's t-test. n=3.
Recently, a mouse model was reported with stable human HER2 antigen expression in the mouse liver. […] Here, the construction of this mouse model was modified and two plasmids were delivered using a lipid nanoparticle (FIGS. 25A-25D). […] Next, a E0771-HER2 tumour model was constructed in mice with HER2 expression in the liver (FIG. 26A). […] The mice were then monitored for tumour growth, body weight, and survival (FIGS. 26B-26D).

E0771-HER2 tumour [2] = test: AMD-mediated in vivo disassembly of SiTE-Cy7 (Cy7 signal in tumour); parameters: species or system mouse; conditions: 18 h post-SiTE-Cy7, read 6 h later
Procedure: FIGS. 19A-19C: SiTE was labeled with Cy7 dye (Cy7 was labeled on CD3 Fab) and was i.v. injected to tumour-bearing mice at 0 h. Then. PBS. […] 6 h later, mice were euthanized and the Cy7 signal in different organs and tumour was measured using IVIS. […] FIG. 19E: quantification of the fluorescence in tumour tissues in a-c. Data was shown as mean±SD (n=3), statistical differences were analyzed using two-tailed unpaired Student's t-test. […] SiTE-Cy7 was i.v. infused into tumour bearing mice at 0 h. […] After 24 h, mice were euthanized and the Cy7 signal distribution in major organs and mice body was observed. Cy7 signal was detected in the spleen, kidney and bladder.
Next, determination as to whether AMD can be used to break down the SiTE in vivo was sought. Cy7 was modified to the CD3 Fab and the Fab assembled with HER2 Fab to formulate SiTE-Cy7. SiTE-Cy7 was i.v. injected to E0771-HER2 tumour-bearing mice at 0 h. […] Mice were euthanized 6 h later and the Cy7 signal in different organs and tumour was measured using an in vivo imaging system (IVIS). […] Most supramolecular chemistry-based strategies for controllable chemotherapeutic release have only been tested in in vitro studies, and only a few in vivo controllable drug release strategies have been reported in this space. […]

[3] = system: Raji-Luc-GFP tumour cells; test: Cytokine release syndrome in humanized NSG-SGM3 mice with Raji-Luc-GFP tumour; format: in vivo, mouse; conditions: 10 mg/kg AMD i.v., 24 h post-AMD
Procedure: An in vivo imaging system (IVIS) was used to monitor tumour burden in vivo. […] FIGS. 41C-41E: Mouse body weight, temperature and survival curves, respectively. n=10 mice. […] The data in FIGS. 41C-41D and FIGS. 41F-41J were plotted as mean±s.d. (n=10) from three independent experiments. […] P value in FIG. 41E was determined using Log-rank (Mantel-Cox) test.
SiTE and Blinatumomab were also compared with regard to treating symptoms of CRS and neurotoxicity. The humanized mouse model was constructed as before, but this time the piggybac transposon system was not used to express CD19 in the mouse livers. This allowed better analysis of the effects of the SiTE on CRS and neurotoxicity (FIG. 41A). Raji-Luc-GFP cells were i.v. injected at day −14. Blinatumomab, SiTE or PBS were i.v. injected to the mice at day one. Mouse tumour burden, body weight, temperature, and plasma cytokine levels were monitored (FIGS. 41B-41J).

[4] = system: Raji-Luc-GFP tumour cells; test: Humanized immune system mice with liver CD19 and Raji-Luc-GFP tumour; conditions: AMD i.v. at day 7 after SiTE
[5] = Half-life, distribution and clearance of AMD in mice; format: in vivo; conditions: mouse; for half-life: blood, intravenous
[6] = system: Raji-Luc-GFP tumour cells; conditions: AMD treatment group after SiTE
Procedure: FIG. 42A: NSG-SGM3 mice were treated with Busulfan at day −50 to remove mouse bone marrow. At day −49, 10^5 human CD34^+ fetal liver cells were i.v. injected to let the mouse develop a human immune system. 10^6 Raji-Luc-GFP tumour cells were i.v. injected at day −14. At days 1, 3, and 5, PBS or SiTE was i.v. injected (in the PBS group, only PBS was injected to tumour-bearing mice). […] FIGS. 42B-42E: mouse body weight, temperature, IL-6 levels, and mouse survival curves, respectively. n=10 mice. The red stars in FIG. 42B indicate that mice were euthanized. FIG. 42F: measurements of IL-1 in mouse blood at different time points. n=10 mice. […] Brain H&E staining (FIG. 42I) and human CD68 immunohistochemistry (FIG. 42J) images of mice at day 35. The data in FIGS. 42B-42F were plotted as mean z s.d. (n=10) from three independent experiments.
It was also evaluated if the SiTE can help control neurotoxicity. In the clinic, neurotoxicity is usually delayed and occurs several […] after CRS onset. Tumour-bearing mice were treated with SiTE at days 1, 3 and 5 (FIG. 42A). […] Rather than use a preventative strategy for treating CRS (FIGS. 40A-40M), here Tocilizumab was used to treat CRS when symptoms presented, so that it can be compared directly with the SiTE strategy. […] Studies have shown that IL-1 is the major cause of neurotoxicity.

[7] = AMD dispersed in 5% polyoxyethylene castor oil

NC12CC3CC(CC(C3)C1)C2 [AMD, adamantan-1-amine]
body weight (E0771-HER2 tumour [1]; 100 μg AMD on day 13 after SiTE): gradual increases in body weight and recovered to a normal range | ALT and AST levels in blood (E0771-HER2 tumour [1]; 24 h after AMD infusion following SiTE): returned to lower levels | T cells in liver tissue (E0771-HER2 tumour [1]; AMD infusion after SiTE treatment): greatly decreased the number of T cells in liver tissue | Cy7 signal decrease compared to PBS treatment (E0771-HER2 tumour [2]; [7]): over 78% | decrease in Cy7 signal in the tumour (E0771-HER2 tumour [2]; AMD dispersed in PBS): ~46% | increased cytokine levels after AMD [3]: gradually recovered to within normal ranges | liver enzyme and cytokine levels in blood [4]: greatly decrease the liver enzyme levels and cytokine levels in blood | half-life [5, 7]: ~24 h | half-life ([5]; AMD dispersed in PBS): ~9 h | clearance ([5]; in vivo): cleared from the urine | animal survival [6]: prolonged animal survival
